We go through 4 compounds from patent US5101072A, “Sulfonylhydrazines and their use as antineoplastic agents and as antitrypanosomal agents” (Yale University, priority 1989, dated 1992).

The conditions of data set [1]: late-stage sleeping sickness; cited from earlier work.
The subject of data set [2] is P388 leukemia. Briefly: % T/C and 60-day cures vs. P388 leukemia. It counts as in vivo, mice. The settings on record: 60 mg/kg/day. How it is done: (§1) ^c % T/C = average survival time of treated/control animals ×
^d % T/C vs. P388 leukemia = 218 (80% 60day cures) at 60 mg/kg/day

Data set [3] can be described thus: Lethality in normal mice. It counts as in vivo. How it is done:
A single intraperitoneal dose of 1.2 g/kg or six daily intraperitoneal doses of 200 mg/kg of MeSO2 N(CH2 CH2 Cl)N(SO2 Me)2 produced no lethality in normal mice. Thus, the relatively great efficacy of this compound against the L1210 and P-388 leukemias and its relative lack of toxicity makes it an agent of significant promise.

Data set [4] has as its system L1210 leukemia. Nature of the data set: Survival time of mice bearing the L1210 leukemia. The format is in vivo. As to the method: The tumor-inhibitory properties of several compounds, e.g., 1,2-bis(methylsulfonyl)-1-methylhydrazine, 1-methyl-1,2,2-tris(methylsulfonyl)hydrazine, 1,2-bis(methylsulfonyl)-1,2-dimethylhydrazine and 1-(2-chloroethyl)-1,2,2-tris(methylsulfonyl)hydrazine were determined by measuring the effects of these agents on the survival time of mice bearing the L1210 leukemia as described by K. Shyam, L. A. Cosby, and A. C. Sartorelli, J. Med. Chem., 28, 525-527 (1985).
^a Administered once daily for 6 consecutive days, beginning 24 hours
after tumor transplantation with 5-10 animals being used per group.
^b Average change in body weight from onset to termination of therapy
as §1

The test system of data set [5] is T. brucei. To be noted: cited from earlier work.
In data set [6] the test system is decarboxylated S-adenosylmethionine (DSAM) and S-adenosylmethionine (SAM). The settings on record: cited from earlier work.
For data set [7], the system named is early-stage sleeping sickness. To be noted: man and animals; cited from earlier work.
Data set [8] relates to T. equiperdum. Briefly: Activity against T. equiperdum. How it is done:
(§2) A representative agent, 1,2-bis(methylsulfonyl)-1-methylhydrazine, was also tested against several other trypanosoma species.

Data set [9] deals with I. brucei brucei. Nature of the data set: Activity against brucei brucei. As to the method:
as §2

The test system of data set [10] is T. gambiense. Briefly: Activity against T. gambiense. How it is done:
as §2

Data set [11] concerns T. rhodesiense (Y Tat 1.1). Briefly: Survival time of CD-1 mice infected with T. rhodesiense (trypanocidal activity). The format is in vivo, T. rhodesiense (Y Tat 1.1); CD-1 mice. The settings on record: single ip dose 0.2 mmol/kg in 0.05 ml of DMSO. As to the method: The trypanocidal properties of several methylating agents including MeSO2 N(Me)N(SO2 Me)2 and MeSO2 N(Me)N(Me)SO2 Me were determined by measuring their effects on the survival time of CD-1 mice infected with T. rhodesiense (Y Tat 1.1), a pleimorphic strain that produces a non-relapsing disease in mice. The level of parasites in the bloodstream and body fluids increases by approximately 10-fold per day and the animals die when the parasite burden exceeds 1 to 2×10^9 cells/ml. Infection with a single viable parasite will kill a mouse in approximately 9 to 10 days.
Mice were infected ip with approximately 10^6 trypanosomes/mouse in phosphate buffered saline containing glucose. This level of parasites produces death in 4 days post-infection. These mice were treated (ip) with a single dose of drug dissolved in the appropriate vehicle 3 days after infection, when the parasitemia was 1 to 3×10^8 cells/ml of blood and the mice, if untreated, would survive for only 24 additional hours. The number of days the mice survived beyond that of the untreated controls was used as a measure of trypanocidal activity. The level of parasitemia in treated mice was measured at regular intervals to distinguish between parasite-related and drug toxicity-related deaths. No toxic deaths were observed. Mice that survived for 30 days without detectable parasitemias were considered cured. The effects of a single dose of various methylating agents on the survival time of trypanosome-bearing mice are summarized in Table II.
^a Drug that was administered was dissolved in 0.5 ml of phosphate
buffered saline containing glucose.
^b Drug that was administered was dissolved in 0.05 ml of DMSO.

The test system of data set [12] is T. rhodesiense. Briefly: Oral trypanocidal activity (preliminary). It counts as in vivo, T. rhodesiense; mice. To be noted: aqueous solutions, preliminary results. From the text: Orally active trypanocidal agents are desirable since, in areas where trypanosomiasis is endemic, other routes of drug administration frequently present problems.
Data set [13] relates to trypanosomes. Briefly: Loss of antitrypanosomal activity upon aging of aqueous buffered solutions. It counts as in vivo. To be noted: aqueous buffered (pH 7.6).
Data set [14] has as its system T. evansi. Briefly: Activity against T. evansi. As to the method:
as §2

Data set [15] is described as follows: Hydrolysis / decomposition in aqueous solution. It counts as physicochemical. As to the method:
In the case of 1,2,2-tris(methylsulfonyl)-1-methylhydrazine, this reaction occurs slowly. A 50 μM solution of this compound hydrolyzes at an initial rate of 1% per minute in phosphate buffered saline (pH 7.6) at 37° C.
Hydrolysis is expected to occur preferentially at N-2 to generate the 1,2-bis(sulfonyl)-1-methylhydrazine. The sulfonic acid and 1,2-bis(sulfonyl)-1-methylhydrazine that are generated are both ionized under these conditions. The release of protons can be used to follow the decomposition of these and related compounds. The release of protons can be assayed by following the decrease in absorbance at 560 nm of a weakly buffered (1 mM potassium phosphate) phenol red (21 mg/l) solution; initial pH 7.6 at 37° C. The assay can be calibrated using HCl standards.
(§3) The reaction of 1,2-bis(sulfonyl)-1-methylhydrazine with water at pH 7.4-7.6 at 37° C. can be followed by proton release and/or methanol generation. Methanol generation can be assayed using alcohol oxidase and measuring the resultant O2 consumption using a Gilson oxygraph. This assay can be calibrated using methanol standards. The reaction of 1,2-bis(sulfonyl)-1-methylhydrazine with water is relatively fast [a 50 μM solution of 1,2-bis(methylsulfonyl)-1-methylhydrazine decomposes at an initial rate of 12-15% per minute in phosphate buffered saline (pH 7.6) at 37° C.] compared to the hydroylsis of 1,2,2-tris(methylsulfonyl)-1-methylhydrazine. RSO2 N=NMe may also decompose by a free radical mechanism to a smaller extent and methylate by the generation of methyl radicals.

The nature of data set [16]: Methanol generation in vitro (spontaneous breakdown to generate reactive methyl groups). It counts as physicochemical. To be noted: aqueous buffered (pH 7.6) solution. As to the method: as §3
Methanol was produced by these agents in aqueous solutions free from strong competing nucleophiles. Formation of this alcohol was used as a measure of the rate of spontaneous breakdown of these compounds to generate reactive methyl groups. […] These findings provide strong evidence that methylation is essential for the observed biological activity of these compounds.

The mark [17] stands for this setting: L1210, at optimum effective daily dose, once daily × 6 days.

Take `Nc1nc(N)nc(Nc2ccc([As]3SCC(CO)S3)cc2)n1` (stereo not shown) [melarsoprol]: the “patients die due to drug toxicity” value in data set [1] is reported as “up to 5%”.

Take `CS(=O)(=O)N(CCCl)N(S(C)(=O)=O)S(C)(=O)=O` [MeSO2 N(CH2 CH2 Cl)N(SO2 Me)2, 1-(2-chloroethyl)-1,2,2-tris(methylsulfonyl)hydrazine]: in [2], the “60-day cures vs. P388 leukemia” value turned out to be 80% and the “% T/C vs. P388 leukemia” value was 218%. Besides, the “Lethality in normal mice” value in [3] (single intraperitoneal dose of 1.2 g/kg) is reported as “no lethality”. Moreover, in [3] (six daily intraperitoneal doses of 200 mg/kg), the “Lethality in normal mice” value is given as “no lethality”. In addition, the “60-day "cures" of the L1210 leukemia” value in [4] (40 and 60 mg/kg per day×6) was 60-day "cures" of the L1210 leukemia. Moreover, the “60-day cures, %” value in data set [4] (setting [17]) was found to be 100%. The “AvΔ Wt, % (average change in body weight from onset to termination of therapy)” value in data set [4] (mice bearing L1210, at optimum effective daily dose) is reported as -7.2%. In addition, in data set [4] (mouse, in vivo), the “Activity against the L1210 leukemia (in words)” value is “exceedingly active”.

`NCCC[C@](N)(C(=O)O)C(F)F` [DFMO, alpha-difluoromethylornithine]: in data set [5], the “Induction of differentiation in T. brucei” value was “induce differentiation in T. brucei”. Besides, the “increase in decarboxylated S-adenosylmethionine (DSAM) and S-adenosylmethionine (SAM)” value in data set [6] is listed as 1000 fold. The “Efficacy against early-stage sleeping sickness” value in data set [7] was “effective against early-stage sleeping sickness”.

For `CN(NS(C)(=O)=O)S(C)(=O)=O` [MeSO2 N(Me)NHSO2 Me, 1,2-bis(methylsulfonyl)-1-methylhydrazine], the “Activity against T. equiperdum” value in data set [8] is “Activity has been demonstrated”. In addition, the “Activity against I. brucei brucei” value in [9] was “Activity has been demonstrated”. In addition, the “Activity against T. gambiense” value in data set [10] was “Activity has been demonstrated”. In [11], the “Mean Extension of Life” value was 11.8 days. The “Trypanocidal activity on oral administration compared with Table II” value in data set [12] was “comparable activity to that reported in Table II”. The “antitrypanosomal activity lost on aging” value in data set [13] (after 0 minutes of aging) was determined as 0%; in data set [13] (after 1 minute of aging) it was 21%; in data set [13] (after 5 minutes of aging) it was 73%; in data set [13] (after 15 minutes of aging), 97%. Besides, the “60-day cures, %” value in data set [4] (setting [17]) is 0%. Moreover, in data set [4] (setting [17]), the “% T/C (average survival time of treated/control animals × 100)” value came to 180%. Further, in [4] (mouse, in vivo), the “AvΔ Wt, % (average change in body weight from onset to termination of therapy)” value is given as -10.7%. Further, the “Activity against T. evansi” value in data set [14] is listed as “Activity has been demonstrated”. Further, in data set [15] (50 μM solution, phosphate buffered saline (pH 7.6), 37° C.), the “Initial rate of hydrolysis / decomposition” value was 12-15 % per minute. Also, the “Decomposition in aqueous solutions” value in [15] (acidified solutions) is “can be inhibited by dosing in acidified solutions”. The “Time within which decomposition was complete (no further methanol generated)” value in data set [16] is at most 15 min.
